In patent publication US20080249136A1, “Antimicrobial Composition and Method” (priority 2005, published 2008):

Key:
[1] = tested on: Staphylococcus aureus ATCC #6538; assay: Efficacy (log kill) against Staphylococcus aureus, 96-well assay block; type: cell-based
Procedure: (§1) The cationic polymers are pH adjusted in the range of 6-7.5. It should be noted that the Ecopol polymers require an acidic environment for complete dissolution. Once the polymer is dissolved, NaOH can be used to bring the pH to the desired range.
(§2) The efficacy of the antimicrobial combinations against Staphylococcus aureus ATCC #6538 and Pseudomonas aeruginosa ATCC #10145 is measured. Testing is done in 96-well 1.5 ml polypropylene assay blocks using 96-well polypropylene sealing mats for covering the samples during incubation. The individual wells in the 96-well assay block are identified as follows: 12 columns numbered 1-12 across the top row of wells on the block, and 8 rows lettered A-H on the first column of the block. Columns 1 and 2 are reserved to test the activity of the biocide in buffer (pH 7.2) in the absence of the cationic polymer. Columns 11 and 12 are always reserved as control, to verify growth of the microorganism in the absence of the biocide. The preparation of the assay blocks involves the following steps in chronological order:
(§3) 1. Preparation of the biocide solution in an appropriate solvent at a concentration equal to 10 times the final concentration desired in row A; 2. Addition of predetermined amount of the stock biocide solution to each well in row A; 3. Addition of a predetermined amount of the solvent to rows B-H and wells 11A and 12A; 4. Serial dilution of the biocide, by transferring a predetermined amount of the solution from row A to row B, mixing, and repeating the transfer down all the rows. After the mixing step in row H, the transferring amount is taken out and disposed of; 5. Inoculation of the buffer and polymer solutions with the test organism. For bacteria, a 24-hour culture is used. Following the incubation period, the organism concentration in the medium is determined by reading the OD at 620 nm. This culture is used to inoculate the buffer and the polymer solution to a bacterial concentration of 1E6 cfu/ml. Fungal challenges are performed with fungal spores isolated from inoculated SDA slants. The spores are collected by swiping the slant with a sterile cotton swab and re-suspended in tryptic soy broth. Tween 80 is added to aid in spore separation and the suspension was homogenized. The spore concentration is obtained by use of a hemacytometer. This suspension is used to inoculate the buffer and the polymeric solutions to a spore concentration of 3-5E6 cfu/ml; 6. Addition of the inoculated buffer or polymer solution to each well. 7. Thorough mixing of the blends in each well; 8. Sampling for the time 0, 24 h, 48 h and 7 days reading is accomplished using a 96-well 300 μl polystyrene microplate. Tryptic Soy broth (TSB) is used for the bacterial studies and Malt (YM) broth buffered at pH 7.4 for fungal studies; 9. The microplates are incubated at 35° C. for bacteria and 30° C. for fungus, until the control samples show adequate growth; and 10. Data is recorded as the log reduction in microorganism concentration relative to the inoculum.

[2] = tested on: Pseudomonas aeruginosa ATCC #10145; assay: Efficacy (log kill) against Pseudomonas aeruginosa, 96-well assay block; type: cell-based
Procedure: as §1, §2, §3

ClC=CC[N+]12CN3CN(CN(C3)C1)C2.[Cl-] [CTAC, 1-(3-chloroallyl)-3,5,7-triaza-1-azoniaadamantane chloride]
Log kill 24 h ([1]; Active Conc. 52.7 ppm): 0 log | Log kill 48 h ([1]; Active Conc. 52.7 ppm): 0 log | Log kill 7 days ([1]; Active Conc. 52.7 ppm): 1 log | Log kill t0 ([1]; Active Conc. 52.7 ppm): 0 log | Log kill 24 h ([1]; Active Conc. 79 ppm): 0 log | Log kill 48 h ([1]; Active Conc. 79 ppm): 0 log | Log kill 7 days ([1]; Active Conc. 79 ppm): 1 log | Log kill t0 ([1]; Active Conc. 79 ppm): 0 log | Log kill 24 h ([1]; Active Conc. 177.8 ppm): 0 log | Log kill 48 h ([1]; Active Conc. 177.8 ppm): 0 log | Log kill 7 days ([1]; Active Conc. 177.8 ppm): 4 log | Log kill t0 ([1]; Active Conc. 177.8 ppm): 0 log | Log kill 24 h ([1]; Active Conc. 400 ppm): 0 log | Log kill 48 h ([1]; Active Conc. 400 ppm): 0 log | Log kill 7 days ([1]; Active Conc. 400 ppm): 6 log | Log kill t0 ([1]; Active Conc. 400 ppm): 0 log | Log kill 24 h ([2]; Active Conc. 46.8 ppm): 0 log | Log kill 48 h ([2]; Active Conc. 46.8 ppm): 0 log | Log kill 7 days ([2]; Active Conc. 46.8 ppm): 0 log | Log kill t0 ([2]; Active Conc. 46.8 ppm): 0 log | Log kill 24 h ([2]; Active Conc. 158 ppm): 0 log | Log kill 48 h ([2]; Active Conc. 158 ppm): 0.5 log | Log kill 7 days ([2]; Active Conc. 158 ppm): 5 log | Log kill t0 ([2]; Active Conc. 158 ppm): 0 log | Log kill 24 h ([2]; Active Conc. 355.6 ppm): 1 log | Log kill 48 h ([2]; Active Conc. 355.6 ppm): 4 log | Log kill 7 days ([2]; Active Conc. 355.6 ppm): 6 log | Log kill t0 ([2]; Active Conc. 355.6 ppm): 0 log | Log kill 24 h ([2]; Active Conc. 800 ppm): 2.5 log | Log kill 48 h ([2]; Active Conc. 800 ppm): 5 log | Log kill 7 days ([2]; Active Conc. 800 ppm): 6 log | Log kill t0 ([2]; Active Conc. 800 ppm): 0 log

zinc pyrithione [ZPT]
Log kill 24 h ([1]; Active Conc. 5.9 ppm): 0 log | Log kill 48 h ([1]; Active Conc. 5.9 ppm): 1 log | Log kill 7 days ([1]; Active Conc. 5.9 ppm): 1 log | Log kill t0 ([1]; Active Conc. 5.9 ppm): 0 log | Log kill 24 h ([1]; Active Conc. 29.6 ppm): 0 log | Log kill 48 h ([1]; Active Conc. 29.6 ppm): 1 log | Log kill 7 days ([1]; Active Conc. 29.6 ppm): 1 log | Log kill t0 ([1]; Active Conc. 29.6 ppm): 0 log | Log kill 24 h ([1]; Active Conc. 100 ppm): 0.5 log | Log kill 48 h ([1]; Active Conc. 100 ppm): 1.5 log | Log kill 7 days ([1]; Active Conc. 100 ppm): 2 log | Log kill t0 ([1]; Active Conc. 100 ppm): 1 log | control of P. aeruginosa before 48 h ([2]; 800 ppm active, before 48 h): no control | Log kill 24 h ([2]; Active Conc. 46.8 ppm): 0 log | Log kill 48 h ([2]; Active Conc. 46.8 ppm): 0 log | Log kill 7 days ([2]; Active Conc. 46.8 ppm): 2 log | Log kill t0 ([2]; Active Conc. 46.8 ppm): 0 log | Log kill 24 h ([2]; Active Conc. 533.3 ppm): 0 log | Log kill 48 h ([2]; Active Conc. 533.3 ppm): 1.5 log | Log kill 7 days ([2]; Active Conc. 533.3 ppm): 3 log | Log kill t0 ([2]; Active Conc. 533.3 ppm): 0 log | Log kill 24 h ([2]; Active Conc. 800 ppm): 0 log | Log kill 48 h ([2]; Active Conc. 800 ppm): 2 log | Log kill t0 ([2]; Active Conc. 800 ppm): 0 log

Cc1ccc(S(=O)(=O)C(I)I)cc1 [DIMTS, diiodomethyl-para-tolylsulfone]
Log kill 24 h ([1]; Active Conc. 189.7 ppm): 0 log | Log kill 48 h ([1]; Active Conc. 189.7 ppm): 0 log | Log kill 7 days ([1]; Active Conc. 189.7 ppm): 0 log | Log kill t0 ([1]; Active Conc. 189.7 ppm): 0 log | Log kill 24 h ([1]; Active Conc. 265.6 ppm): 0 log | Log kill 48 h ([1]; Active Conc. 265.6 ppm): 0 log | Log kill 7 days ([1]; Active Conc. 265.6 ppm): 0 log | Log kill t0 ([1]; Active Conc. 265.6 ppm): 0 log | Log kill 24 h ([1]; Active Conc. 1428.6 ppm): 0 log | Log kill 48 h ([1]; Active Conc. 1428.6 ppm): 0 log | Log kill 7 days ([1]; Active Conc. 1428.6 ppm): 2 log | Log kill t0 ([1]; Active Conc. 1428.6 ppm): 0.5 log | Log kill 24 h ([1]; Active Conc. 2000 ppm): 1 log | Log kill 48 h ([1]; Active Conc. 2000 ppm): 1 log | Log kill 7 days ([1]; Active Conc. 2000 ppm): 6 log | Log kill t0 ([1]; Active Conc. 2000 ppm): 1 log | Log kill 24 h ([2]; Active Conc. 414 ppm): 0 log | Log kill 48 h ([2]; Active Conc. 414 ppm): 1 log | Log kill 7 days ([2]; Active Conc. 414 ppm): 2 log | Log kill t0 ([2]; Active Conc. 414 ppm): 0 log | Log kill 24 h ([2]; Active Conc. 2000 ppm): 1 log | Log kill 48 h ([2]; Active Conc. 2000 ppm): 1 log | Log kill 7 days ([2]; Active Conc. 2000 ppm): 2 log | Log kill t0 ([2]; Active Conc. 2000 ppm): 0 log

Oc1cc(Cl)ccc1Oc1ccc(Cl)cc1Cl [Triclosan, 2,4,4′-trichloro-2-hydroxyphenyl ether]
contact time to achieve 3 log reduction in P. aeruginosa ([2]; 800 ppm of Triclosan): greater than 48 hours | Log kill 24 h ([2]; Triclosan Conc. 105.3 ppm): 1 log | Log kill 48 h ([2]; Triclosan Conc. 105.3 ppm): 1 log | Log kill 7 days ([2]; Triclosan Conc. 105.3 ppm): 2 log | Log kill t0 ([2]; Triclosan Conc. 105.3 ppm): 0 log | Log kill 24 h ([2]; Triclosan Conc. 355.6 ppm): 1 log | Log kill 48 h ([2]; Triclosan Conc. 355.6 ppm): 2 log | Log kill 7 days ([2]; Triclosan Conc. 355.6 ppm): 2 log | Log kill t0 ([2]; Triclosan Conc. 355.6 ppm): 1 log | Log kill 24 h ([2]; Triclosan Conc. 800 ppm): 1 log | Log kill 48 h ([2]; Triclosan Conc. 800 ppm): 2.5 log | Log kill 7 days ([2]; Triclosan Conc. 800 ppm): 4 log | Log kill t0 ([2]; Triclosan Conc. 800 ppm): 1 log
